Assay results as given in patent US20050119190A1, “Inhibitors of the blood-clotting factor xa, production thereof and use of the same” (priority 2002, published 2005).
Structures can show the parent of a compound that is named as a salt.

Biological target: T1, F Xa (bovine) (Bos taurus, UniProt P00743)
T1 construct: purchased Diagnostic Reagents Ltd, Thame, GB
Assay: Inhibition of F Xa, Ki by the method of Dixon, chromogenic substrate Moc-D-Nle-Gly-Arg-pNA
Type: biochemical
Conditions: Example 2; bovine F Xa, 25° C., pH 8.0; average of at least three determinations
Experimental: The inhibitory effect was determined by incubating 200 μl of Tris buffer (0.05 M, 0.154 M NaCI, 5% ethanol, pH 8.0; contains the inhibitor), 25 μl of substrate (Moc-D-Nle-Gly-Arg-pNA in H2O; Pentapharm Ltd., Basel, Switzerland) and 50 μl of F Xa (bovine, Diagnostic Reagents Ltd, Thame, GB) at 25° C. After 3 min, the reaction was stopped by adding 25 μl of acetic acid (50%), and the absorption at 405 nm was determined using a microplate reader (MR 5000, Dynatech, Denkendorf, Germany). The Ki values were found by the method of Dixon (Biochem. J. 55, 170-171, 1953) by linear regression using a computer program. The Ki values are the average of at least three determinations.

T1 sequence (P00743 234-492 limits assumed): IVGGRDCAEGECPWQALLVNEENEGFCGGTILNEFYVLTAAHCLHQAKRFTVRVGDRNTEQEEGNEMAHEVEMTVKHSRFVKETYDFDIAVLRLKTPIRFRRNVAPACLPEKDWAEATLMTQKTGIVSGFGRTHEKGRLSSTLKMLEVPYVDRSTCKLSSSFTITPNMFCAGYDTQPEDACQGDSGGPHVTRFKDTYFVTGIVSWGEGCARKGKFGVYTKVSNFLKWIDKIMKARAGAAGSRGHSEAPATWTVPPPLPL
T1 sequence (P00743 41-180 partner limits assumed): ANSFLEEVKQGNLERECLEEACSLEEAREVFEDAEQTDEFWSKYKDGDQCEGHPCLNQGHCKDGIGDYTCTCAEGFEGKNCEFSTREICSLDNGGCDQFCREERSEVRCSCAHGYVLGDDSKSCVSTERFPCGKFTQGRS

| Molecule | Ki [nM] |
| --- | --- |
| CC(C)(C)OC[C@@H](NS(=O)(=O)Cc1ccccc1)C(=O)NCC(=O)NCc1ccc(C(=N)N)cc1 [Bzl—SO2 D CH2—O—tBu H CH2 CH2, Benzylsulfonyl-D-Ser(tBu)-Gly 4-amidinobenzylamide] | 50 |
| CC(C)(C)OC[C@@H](NS(=O)(=O)Cc1ccccc1)C(=O)N[C@@H](CCC(=O)O)C(=O)NCc1ccc(C(=N)N)cc1 [Bzl—SO2 D CH2—O—tBu H CH—(CH2)2—COOH CH2, Benzylsulfonyl-D-Ser(tBu)-Glu 4-amidinobenzylamide×TFA] | 250 |
| CC(C)(C)OC[C@@H](NS(=O)(=O)Cc1ccccc1)C(=O)NC(CC(=O)O)C(=O)NCc1ccc(C(=N)N)cc1 (stereo partly drawn) [Bzl—SO2 D CH2—O—tBu H CH—CH2—COOH CH2] | 1200 |

Same assay, conditions: Example 4; inhibition of factor Xa by inhibitors of formula I

| Molecule | Ki [nM] |
| --- | --- |
| 4-(Aminomethyl)benzylsulfonyl-dSer(tBu)-Gly 4-amidinobenzylamide×2 TFA [Example 7] | 29 |
| CC(C)(C)OC[C@@H](NS(=O)(=O)Cc1ccccc1)C(=O)N[C@@H](CCC(=O)O)C(=O)NCc1ccc(C(=N)N)cc1 [Bzl—SO2 D CH2—O—tBu H CH—(CH2)2—COOH CH2, Benzylsulfonyl-D-Ser(tBu)-Glu 4-amidinobenzylamide×TFA] | 6.5 |
| N=C(N)c1ccc(CNC(=O)CNC(=O)[C@@H](Cc2cccc(C(=N)N)c2)NS(=O)(=O)Cc2ccccc2)cc1 [No. 1, Benzylsulfonyl-dPhe(3-amidino)-Gly 4-(amidino)benzylamide×2 TFA] | 34 |
| CC(C)(C)OC[C@@H](NS(=O)(=O)Cc1ccccc1)C(=O)N[C@@H](CO)C(=O)NCc1ccc(C(=N)N)cc1 [No. 11, Bzls-dSer(tBu)-Ser 4-(amidino)benzylamide×TFA] | 28 |
| CC(C)(C)OC[C@@H](NS(=O)(=O)Cc1cccc(C(=O)O)c1)C(=O)NCC(=O)NCc1ccc(C(=N)N)cc1 [No. 19, 3-(HOOC)Benzylsulfonyl-dSer(tBu)-Gly 4-amidinobenzylamide×TFA] | 27 |
| N=C(N)NCCC[C@@H](NS(=O)(=O)CC1CCCCC1)C(=O)NCC(=O)NCc1ccc(C(=N)N)cc1 [compound 2] | 6.7 |
| CC(C)(C)OC[C@@H](NS(=O)(=O)Cc1ccc(Cl)cc1)C(=O)NCC(=O)NCc1ccc(C(=N)N)cc1 [compound 3] | 14 |
| CC(C)(C)OC[C@@H](NS(=O)(=O)Cc1ccc(F)cc1)C(=O)NCC(=O)NCc1ccc(C(=N)N)cc1 [compound 9] | 36 |
| CC(C)(C)OC[C@@H](NS(=O)(=O)Cc1ccc(C(=O)O)cc1)C(=O)NCC(=O)NCc1ccc(C(=N)N)cc1 [compound 10] | 53 |
| CC(C)(C)OC[C@@H](NS(=O)(=O)Cc1ccccc1)C(=O)N[C@@H](CO)C(=O)NCc1ccc(C(=N)N)cc1 [compound 11] | 54 |
| CC(C)(C)OC[C@@H](NS(=O)(=O)Cc1ccc(C#N)cc1)C(=O)NCC(=O)NCc1ccc(C(=N)N)cc1 [compound 12] | 65 |
| N=C(N)c1ccc(CNC(=O)C(CCCCN)NC(=O)C(CC2CCCCC2)NS(=O)(=O)Cc2ccccc2)cc1 (stereo not drawn) [compound 13] | 67 |
| COC(=O)Cc1ccc(CS(=O)(=O)N[C@H](COC(C)(C)C)C(=O)NCC(=O)NCc2ccc(C(=N)N)cc2)cc1 [compound 14] | 70 |
| CC(C)(C)OC[C@@H](NS(=O)(=O)Cc1ccc2ccccc2c1)C(=O)NCC(=O)NCc1ccc(C(=N)N)cc1 [compound 15] | 78 |
| CC(C)(C)OC[C@@H](NS(=O)(=O)Cc1ccc(Cl)c(Cl)c1)C(=O)NCC(=O)NCc1ccc(C(=N)N)cc1 [compound 16] | 83 |
| CC(C)(C)OC[C@@H](NS(=O)(=O)CCc1ccccc1)C(=O)NCC(=O)NCc1ccc(C(=N)N)cc1 [compound 17] | 88 |
| CC(C)(C)OC[C@@H](NS(=O)(=O)Cc1cccc(C(=O)O)c1)C(=O)NCC(=O)NCc1ccc(C(=N)N)cc1 [compound 19] | 130 |
| CC(C)(C)OC[C@@H](NS(=O)(=O)Cc1ccccc1C(=O)O)C(=O)NCC(=O)NCc1ccc(C(=N)N)cc1 [compound 20] | 140 |
| COC(=O)c1ccc(CS(=O)(=O)N[C@H](COC(C)(C)C)C(=O)NCC(=O)NCc2ccc(C(=N)N)cc2)cc1 [compound 21] | 160 |
| CC(C)(C)OC[C@@H](NS(=O)(=O)Cc1ccncc1)C(=O)NCC(=O)NCc1ccc(C(=N)N)cc1 [compound 22] | 170 |
| CC(C)(C)OC[C@@H](NS(=O)(=O)Cc1ccc(CC(=O)O)cc1)C(=O)NCC(=O)NCc1ccc(C(=N)N)cc1 [compound 23] | 170 |
| N=C(N)c1ccc(CNC(=O)CNC(=O)[C@@H](Cc2ccc(C(=N)N)cc2)NS(=O)(=O)Cc2ccccc2)cc1 [compound 26] | 260 |
| CC(C)(C)OCC(NS(=O)(=O)Cc1ccc(C(=O)O)cc1)C(=O)NC(CO)C(=O)NCc1ccc(C(=N)N)cc1 (stereo not drawn) [compound 27] | 270 |
| CC(C)(C)OC[C@@H](NS(=O)(=O)CCc1cccc2ccccc12)C(=O)NCC(=O)NCc1ccc(C(=N)N)cc1 [compound 28] | 280 |
| N=C(N)c1ccc(CNC(=O)CNC(=O)[C@@H](Cc2c[nH]cn2)NS(=O)(=O)Cc2ccccc2)cc1 [compound 32] | 670 |
| CC(C)(C)OC[C@@H](NS(=O)(=O)Cc1ccccc1)C(=O)NCC(=O)NCc1ccc(C(N)=NO)cc1 [compound 33] | 26000 |

Biological target: F Xa
Assay: not given
Conditions: values from cited literature; cited from earlier work

| Molecule | Ki [nM] |
| --- | --- |
| N=C(N)c1ccc(C=C2CCCCC(=Cc3ccc(C(=N)N)cc3)C2=O)cc1 [BABCH] | 13 |
